Measurements from PubChem BioAssay AID2060909 (Molecular Pharmacology Branch, DTP, NCI, 2025).

Tested on: 362531-283-R-J2-PDC complex spheroid viability
Assay: Anticancer human tumor 362531-283-R-J2-PDC patient-derived colon adenocarcinoma cell line growth inhibition [RAS]
Settings: for IC50: curve of first compound; for viability, T/C: stronger effect = lower value
In short: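 Tumour cells grown as complex spheroids with HUVEC endothelial cells and mesenchymal stem cells, treated with RAS pathway inhibitor combinations. Each agent spans half-log steps from near clinical Cmax, or 10 microM where Cmax is unknown.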

[1] = second compound 0.000949 µM, first compound 0.0316 µM
[2] = second compound 0.000949 µM, first compound 0.1 µM
[3] = second compound 0.003 µM, first compound 0.0316 µM
[4] = second compound 0.003 µM, first compound 0.1 µM
[5] = second compound 0.00949 µM, first compound 0.0316 µM
[6] = second compound 0.00949 µM, first compound 0.1 µM
[7] = second compound 0.03 µM, first compound 0.0316 µM
[8] = second compound 0.03 µM, first compound 0.1 µM
[9] = second compound 0.0949 µM, first compound 0.0316 µM
[10] = second compound 0.0949 µM, first compound 0.1 µM
[11] = second compound 0.3 µM, first compound 0.0316 µM
[12] = second compound 0.3 µM, first compound 0.1 µM
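Also: spheroids exposed to the agents for 7 days before readout.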
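For viability, T/C in this document: luminescence viability as percent of DMSO vehicle control wells.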

CC1(C)CCC(Nc2ncc(C(F)(F)F)c(-c3c[nH]c4c(P(C)(C)=O)c(C#N)ccc34)n2)CN1 (stereo unspecified) + C#Cc1c(F)ccc2cc(O)cc(-c3ncc4c(N5CC6CCC(C5)N6)nc(OCC56CCCN5CC(F)C6)nc4c3F)c12
IC50 (second compound 0.0316 µM): > 300 nM | IC50 (second compound 0.1 µM): > 300 nM | IC50 (second compound 0.316 µM): > 300 nM | IC50 (second compound 1 µM): > 300 nM | IC50 (second compound 3.16 µM): > 300 nM | IC50 (second compound 10 µM): > 300 nM | viability, T/C (second compound 0.0316 µM, first compound 0.000949 µM): 97% | viability, T/C (second compound 0.0316 µM, first compound 0.003 µM): 95.6% | viability, T/C (second compound 0.0316 µM, first compound 0.00949 µM): 98.5% | viability, T/C (second compound 0.0316 µM, first compound 0.03 µM): 92.3% | viability, T/C (second compound 0.0316 µM, first compound 0.0949 µM): 107% | viability, T/C (second compound 0.0316 µM, first compound 0.3 µM): 114% | viability, T/C (second compound 0.1 µM, first compound 0.000949 µM): 107% | viability, T/C (second compound 0.1 µM, first compound 0.003 µM): 85.5% | viability, T/C (second compound 0.1 µM, first compound 0.00949 µM): 90.4% | viability, T/C (second compound 0.1 µM, first compound 0.03 µM): 95.8% | viability, T/C (second compound 0.1 µM, first compound 0.0949 µM): 101% | viability, T/C (second compound 0.1 µM, first compound 0.3 µM): 99.5% | viability, T/C (second compound 0.316 µM, first compound 0.000949 µM): 95.7% | viability, T/C (second compound 0.316 µM, first compound 0.003 µM): 88.2% | viability, T/C (second compound 0.316 µM, first compound 0.00949 µM): 88.8% | viability, T/C (second compound 0.316 µM, first compound 0.03 µM): 90.2% | viability, T/C (second compound 0.316 µM, first compound 0.0949 µM): 97.4% | viability, T/C (second compound 0.316 µM, first compound 0.3 µM): 93.8% | viability, T/C (second compound 1 µM, first compound 0.000949 µM): 80.5% | viability, T/C (second compound 1 µM, first compound 0.003 µM): 89.3% | viability, T/C (second compound 1 µM, first compound 0.00949 µM): 83.4% | viability, T/C (second compound 1 µM, first compound 0.03 µM): 93.5% | viability, T/C (second compound 1 µM, first compound 0.0949 µM): 80.9% | viability, T/C (second compound 1 µM, first compound 0.3 µM): 82.9% | viability, T/C (second compound 3.16 µM, first compound 0.000949 µM): 68.4% | viability, T/C (second compound 3.16 µM, first compound 0.003 µM): 65.9% | viability, T/C (second compound 3.16 µM, first compound 0.00949 µM): 70.9% | viability, T/C (second compound 3.16 µM, first compound 0.03 µM): 74% | viability, T/C (second compound 3.16 µM, first compound 0.0949 µM): 61.2% | viability, T/C (second compound 3.16 µM, first compound 0.3 µM): 71.1% | viability, T/C (second compound 10 µM, first compound 0.000949 µM): 56.4% | viability, T/C (second compound 10 µM, first compound 0.003 µM): 49.7% | viability, T/C (second compound 10 µM, first compound 0.00949 µM): 54.8% | viability, T/C (second compound 10 µM, first compound 0.03 µM): 55% | viability, T/C (second compound 10 µM, first compound 0.0949 µM): 41.4% | viability, T/C (second compound 10 µM, first compound 0.3 µM): 54.3%

CC(C)n1nc(-c2ccc3oc(N)nc3c2)c2c(N)ncnc21 + CCn1c(-c2cc(N3CCN(C)CC3)cnc2C(C)OC)c2c3cc(ccc31)-c1csc(n1)CC(NC(=O)C1CC1C)C(=O)N1CCCC(N1)C(=O)OCC(C)(C)C2
IC50 (second compound 0.000949 µM): 62.7 nM | IC50 (second compound 0.003 µM): 67.9 nM | IC50 (second compound 0.00949 µM): 48.1 nM | IC50 (second compound 0.03 µM): 41.3 nM | IC50 (second compound 0.0949 µM): 18.8 nM | IC50 (second compound 0.3 µM): < 0.316 nM | viability, T/C (second compound 0.000949 µM, first compound 0.000316 µM): 88.2% | viability, T/C (second compound 0.000949 µM, first compound 0.001 µM): 97.4% | viability, T/C (second compound 0.000949 µM, first compound 0.00316 µM): 98.9% | viability, T/C (second compound 0.000949 µM, first compound 0.01 µM): 106% | viability, T/C [1]: 62.9% | viability, T/C [2]: 41.2% | viability, T/C (second compound 0.003 µM, first compound 0.000316 µM): 99.4% | viability, T/C (second compound 0.003 µM, first compound 0.001 µM): 102% | viability, T/C (second compound 0.003 µM, first compound 0.00316 µM): 102% | viability, T/C (second compound 0.003 µM, first compound 0.01 µM): 100% | viability, T/C [3]: 69.7% | viability, T/C [4]: 40% | viability, T/C (second compound 0.00949 µM, first compound 0.000316 µM): 102% | viability, T/C (second compound 0.00949 µM, first compound 0.001 µM): 111% | viability, T/C (second compound 0.00949 µM, first compound 0.00316 µM): 93.6% | viability, T/C (second compound 0.00949 µM, first compound 0.01 µM): 94.7% | viability, T/C [5]: 57.6% | viability, T/C [6]: 35.9% | viability, T/C (second compound 0.03 µM, first compound 0.000316 µM): 89.5% | viability, T/C (second compound 0.03 µM, first compound 0.001 µM): 86.5% | viability, T/C (second compound 0.03 µM, first compound 0.00316 µM): 89.6% | viability, T/C (second compound 0.03 µM, first compound 0.01 µM): 92% | viability, T/C [7]: 54% | viability, T/C [8]: 36.8% | viability, T/C (second compound 0.0949 µM, first compound 0.000316 µM): 82.2% | viability, T/C (second compound 0.0949 µM, first compound 0.001 µM): 84.1% | viability, T/C (second compound 0.0949 µM, first compound 0.00316 µM): 77.1% | viability, T/C (second compound 0.0949 µM, first compound 0.01 µM): 63.1% | viability, T/C [9]: 39% | viability, T/C [10]: 35% | viability, T/C (second compound 0.3 µM, first compound 0.000316 µM): 41.6% | viability, T/C (second compound 0.3 µM, first compound 0.001 µM): 45.7% | viability, T/C (second compound 0.3 µM, first compound 0.00316 µM): 37% | viability, T/C (second compound 0.3 µM, first compound 0.01 µM): 21.1% | viability, T/C [11]: 21.8% | viability, T/C [12]: 17.1%

Cc1nc(N2CCC3(CC2)COC(C)C3N)c(CO)nc1Sc1ccnc(N)c1Cl (stereo unspecified) + CCn1c(-c2cc(N3CCN(C)CC3)cnc2C(C)OC)c2c3cc(ccc31)-c1csc(n1)CC(NC(=O)C1CC1C)C(=O)N1CCCC(N1)C(=O)OCC(C)(C)C2
IC50 (second compound 0.000949 µM): > 10000 nM | IC50 (second compound 0.003 µM): > 10000 nM | IC50 (second compound 0.00949 µM): 7340 nM | IC50 (second compound 0.03 µM): 1870 nM | IC50 (second compound 0.0949 µM): 529 nM | IC50 (second compound 0.3 µM): < 31.6 nM | viability, T/C [1]: 95.4% | viability, T/C [2]: 122% | viability, T/C (second compound 0.000949 µM, first compound 0.316 µM): 89% | viability, T/C (second compound 0.000949 µM, first compound 1 µM): 93.7% | viability, T/C (second compound 0.000949 µM, first compound 3.16 µM): 86.4% | viability, T/C (second compound 0.000949 µM, first compound 10 µM): 70.5% | viability, T/C [3]: 103% | viability, T/C [4]: 113% | viability, T/C (second compound 0.003 µM, first compound 0.316 µM): 94.8% | viability, T/C (second compound 0.003 µM, first compound 1 µM): 89.6% | viability, T/C (second compound 0.003 µM, first compound 3.16 µM): 92.8% | viability, T/C (second compound 0.003 µM, first compound 10 µM): 72.4% | viability, T/C [5]: 104% | viability, T/C [6]: 113% | viability, T/C (second compound 0.00949 µM, first compound 0.316 µM): 84.7% | viability, T/C (second compound 0.00949 µM, first compound 1 µM): 88.9% | viability, T/C (second compound 0.00949 µM, first compound 3.16 µM): 88% | viability, T/C (second compound 0.00949 µM, first compound 10 µM): 37.1% | viability, T/C [7]: 102% | viability, T/C [8]: 104% | viability, T/C (second compound 0.03 µM, first compound 0.316 µM): 74.3% | viability, T/C (second compound 0.03 µM, first compound 1 µM): 68.9% | viability, T/C (second compound 0.03 µM, first compound 3.16 µM): 36.9% | viability, T/C (second compound 0.03 µM, first compound 10 µM): 7.23% | viability, T/C [9]: 77.7% | viability, T/C [10]: 77% | viability, T/C (second compound 0.0949 µM, first compound 0.316 µM): 65.2% | viability, T/C (second compound 0.0949 µM, first compound 1 µM): 30.9% | viability, T/C (second compound 0.0949 µM, first compound 3.16 µM): 8.1% | viability, T/C (second compound 0.0949 µM, first compound 10 µM): 4.24% | viability, T/C [11]: 47.3% | viability, T/C [12]: 37.8% | viability, T/C (second compound 0.3 µM, first compound 0.316 µM): 18.9% | viability, T/C (second compound 0.3 µM, first compound 1 µM): 6.49% | viability, T/C (second compound 0.3 µM, first compound 3.16 µM): 5.54% | viability, T/C (second compound 0.3 µM, first compound 10 µM): 3.65%
